Assay results taken from JPH0770139A, “2−(モノ又はジ置換−6，7−ジヒドロ−5H−ピラゾロ[1，2−a]ピラゾリウム−6−イル)チオ−カルバペネム誘導体” (Lederle Japan Ltd, priority 1993, dated 1994).

System: male CrjCD(SD) mice [CrjCD(SD)系雄性マウス]
Assay: Toxicity test (subcutaneous administration to mice, 1 week observation)
Assay type: in vivo, mouse
Conditions: 500mg/kg, 10 male CrjCD(SD) mice, body weight 20-23 g, observation for 1 week

Row | Compound | survival without abnormality
1 | C[C@@H](O)[C@H]1C(=O)N2C(C(=O)[O-])=C(SC3Cn4cc(C(=O)N(C)C)c[n+]4C3)[C@H](C)[C@H]12 (stereo partly drawn) [化合物(28), (1R,5S,6S)−2−{[6,7−ジヒドロ−2−(N,N−ジメチルカルバモイル)−5H−ピラゾロ[1.2−a]ピラゾリウム−6−イル]チオ}−6−[(R)−ヒドロキシエチル]−1−メチルカルバペン−2−エム−3−カルボキシレート] | すべて異常なく生存した
2 | Cc1cc(C)[n+]2n1CC(SC1=C(C(=O)[O-])N3C(=O)[C@H]([C@@H](C)O)[C@H]3[C@H]1C)C2 (stereo partly drawn) [化合物(26), (1R,5S,6S)−2−[(6,7−ジヒドロ−1,3−ジメチル−5H−ピラゾロ[1,2−a]ピラゾリウム−6−イル)チオ]−6−[(R)−1−ヒドロキシエチル]−1−メチル−カルバペン−2−エム−3−カルボキシレート] | すべて異常なく生存した
3 | C[C@@H](O)[C@H]1C(=O)N2C(C(=O)[O-])=C(SC3Cn4cc(F)c[n+]4C3)[C@H](C)[C@H]12 (stereo partly drawn) [化合物(30), (1R,5S,6S)−2−[(6,7−ジヒドロ−2−フルオロ−5H−ピラゾロ[1.2−a]ピラゾリウム−6−イル)チオ]−6−[(R)−1−ヒドロキシエチル]−1−メチルカルバペン−2−エム−3−カルボキシレート] | すべて異常なく生存した
